The results in this text go back to patent US11458138B2 (Novartis AG, priority 2017, dated 2022).

For test [1], the target named is Human LATS1 kinase domain protein (Homo sapiens (Human), UniProt O95835). Description: LATS1 Biochemical Caliper Assay (Compound Examples 291-335). Conditions: Caliper EZ Reader. On the procedure:
The LATS1 biochemical Caliper assay was performed as following.
Human LATS1 kinase domain protein was purchased from Carnabio (catalogue number 01-123; lot 15CBS-0098D). Human LATS1, catalytic domain [589-1130(end) amino acids of accession number NP_004681.1] was co-expressed as N-terminal GST-fusion protein (90 kDa) with human His-tagged MOBKL1A [1-216(end) amino acids of accession number NP_775739.1] using baculovirus expression system. GST-LATS1 was purified by using glutathione sepharose chromatography. The substrate (Fluo-SGKtide; Peptide for LATS1; lot BS-41067) has the following sequence: 5-Fluo-Nva-[…]-amide (SEQ ID NO: 27) x TFA and was purchased from Biosyntan.
The reaction is performed in reaction buffer containing 50 mM Hepes pH 7,5; 0.02% Tween20; 0.02% BSA; 1 mM DTT; 10 uM Na3VO4 and 10 mM beta-Glycerolphosphat and fresh added 1 mM MgCl2 and qsp H2O.
The substrate solution (2× conc.) in Reaction Buffer contains 300 μM ATP and 4 μM Fluo-SGKtide.
The kinase solution (2× conc.) in Reaction Buffer contains 20 nM LATS1 kinase. 4.5 μL of 2× conc. Kinase solution, 50 nL of 1.8 mM compounds and 4.5 μL of substrate solution were added into 384-well plates black small volume from Greiner and incubated at 32° C. for 1 hour. 15 μL of stop buffer containing 100 mM Hepes pH 7,5; 5% DMSO; 0.1% Coating reagent; 10 mM EDTA and 0.02% Brij35 and qsp H2O to each well to terminate the reaction.
Substrates and products were electrophoretically separated using the microfluidic-based Caliper EZ Reader System (Caliper Life Sciences) using a 12 sipper chip (cat 760404). The separation takes place in Coating Buffer (idem Stop buffer) and containing 0.1% Coating reagent CR3 and 0.5% coating reagent CR8 (Perkin Elmer).
Plates were read using a LED with an excitation at 488 nm and a detection at 520 nm to 5 quantify the fluorescence intensity.

In test [2] the test system is Phospho-YAP (Ser127) in JHH-5 cells. Description: pYAP HTRF Assay (JHH-5 cells). Format: cell-based. Conditions: 2 hours. The procedure, abridged: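 JHH-5 cells (24000/well) cultured 24 h at 37 °C in William's E with 10% FBS, then exposed to compounds for 2 h at 37 °C. After lysis, pYAP d2/cryptate antibodies incubated 18 h at room temperature; HTRF ratio 665/620 nm ×10000.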
(In general: In TR-FRET formats the signal depends on donor and acceptor labels being close together.)

In the next test the target is LATS1 (Homo sapiens (Human), UniProt O95835). Description: LATS1 biochemical assay (Table 1A, Compound Examples 1-290; method in the earlier part).
The target in test [3] is Human LATS2 kinase domain protein (Homo sapiens (Human), UniProt Q9NRM7). Description: LATS2 Biochemical Caliper Assay (Compound Examples 1-290). Conditions: 400 micromolar ATP. On the procedure:
Human LATS2 kinase domain protein was purchased from Carnabio (catalogue number 01-124), which harbors the catalytic domain of amino acids 553-1088, and was co-purified with human His-tagged MOBKL1A (NP_775-739). 5 microlitre of enzyme buffer, 100 nL of compounds and 5 microlitre of localising aid buffer were added into 384-well plates. […] The plates were incubated at 25° C. for 3 hours. 40 microlitre of stop buffer with 25 mM EDTA (NanoSyn) was added to each well to terminate the reaction. Localising aids and products were separated electrophoretically using the microfluidic-based Caliper Labchip 3000 Drug Discovery System (Caliper Life Sciences). Plates were read using blue laser excitation and green fluorescence detection and quantified by fluorescence intensity.

The subject of test [4] is YAP nuclear translocation in HaCaT cells. Description: YAP Translocation Assay (HaCaT Cells). Format: cell-based, human. Conditions: Homo sapiens, 24 hours. The procedure, abridged:
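HaCaT cells (20,000/well) in DMEM + 10% FBS were plated overnight at 37° C, then exposed to compound for 24 h at 37° C. Cells were fixed with PFA, permeabilized with 0.1% Triton/1.5% BSA and imaged by high-content imaging.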

Test [5] relates to Phospho-YAP (SER127) in HaCaT cells. Description: pYAP HTRF Assay (HaCaT Cells). Format: cell-based, human. The settings on record: Homo sapiens, 2 hours. The method, boiled down:
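HaCaT cells at 5500 cells/well were cultured 48 hours at 37° C, then treated with compound for 2 hours. Phospho-YAP (Ser127) was detected by HTRF after an overnight (20 hrs) room-temperature incubation, read as the 665 nm/620 nm ratio.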

For orientation: IC50 means the point on the concentration scale where inhibition reaches its midpoint. A low value points to greater potency. As usually defined, the EC50 is the midpoint of the concentration-response curve. A lower EC50 goes with higher potency in that assay.

Sequence of Human LATS1 kinase domain protein (O95835 whole entry, looked up, the tested form may be a part): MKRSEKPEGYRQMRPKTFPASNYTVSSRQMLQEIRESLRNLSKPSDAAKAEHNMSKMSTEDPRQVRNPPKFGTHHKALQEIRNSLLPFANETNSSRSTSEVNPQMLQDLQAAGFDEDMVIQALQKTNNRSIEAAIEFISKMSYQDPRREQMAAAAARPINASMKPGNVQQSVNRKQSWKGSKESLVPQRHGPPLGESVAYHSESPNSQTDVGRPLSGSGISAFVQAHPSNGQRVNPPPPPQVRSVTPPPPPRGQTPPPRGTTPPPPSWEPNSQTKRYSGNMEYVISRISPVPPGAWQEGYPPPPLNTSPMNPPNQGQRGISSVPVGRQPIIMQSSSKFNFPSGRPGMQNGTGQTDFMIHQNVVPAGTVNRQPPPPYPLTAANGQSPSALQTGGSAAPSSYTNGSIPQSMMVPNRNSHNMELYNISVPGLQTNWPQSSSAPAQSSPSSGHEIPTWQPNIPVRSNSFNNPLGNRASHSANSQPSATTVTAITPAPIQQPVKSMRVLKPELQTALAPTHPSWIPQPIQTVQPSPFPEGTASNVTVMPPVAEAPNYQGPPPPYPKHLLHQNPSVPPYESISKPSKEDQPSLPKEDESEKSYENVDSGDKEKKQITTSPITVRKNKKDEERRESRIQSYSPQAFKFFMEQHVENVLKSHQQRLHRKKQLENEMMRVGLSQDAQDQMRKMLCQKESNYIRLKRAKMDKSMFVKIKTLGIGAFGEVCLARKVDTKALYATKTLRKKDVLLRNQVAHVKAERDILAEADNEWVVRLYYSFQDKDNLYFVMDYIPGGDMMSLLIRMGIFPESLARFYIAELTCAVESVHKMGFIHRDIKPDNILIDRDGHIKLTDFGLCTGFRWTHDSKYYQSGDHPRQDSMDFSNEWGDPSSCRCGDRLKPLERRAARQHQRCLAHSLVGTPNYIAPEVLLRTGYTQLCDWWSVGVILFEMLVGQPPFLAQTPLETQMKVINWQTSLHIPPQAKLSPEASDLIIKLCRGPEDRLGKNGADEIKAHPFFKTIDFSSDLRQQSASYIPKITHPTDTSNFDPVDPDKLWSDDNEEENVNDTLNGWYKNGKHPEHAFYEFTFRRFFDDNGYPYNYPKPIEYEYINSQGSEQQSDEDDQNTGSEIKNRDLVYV
Sequence of Human LATS1 kinase domain protein (Q7L9L4 whole entry partner, looked up, the tested form may be a part): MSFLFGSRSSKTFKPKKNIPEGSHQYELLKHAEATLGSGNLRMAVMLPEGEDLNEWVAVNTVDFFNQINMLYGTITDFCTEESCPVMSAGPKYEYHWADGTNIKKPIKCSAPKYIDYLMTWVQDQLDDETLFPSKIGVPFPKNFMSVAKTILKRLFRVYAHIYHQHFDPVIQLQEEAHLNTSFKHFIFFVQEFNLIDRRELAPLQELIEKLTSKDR
Sequence of LATS1 (O95835 whole entry, looked up, the tested form may be a part): as the sequence (O95835 whole entry, looked up, the tested form may be a part) above
Sequence of LATS1 (Q7L9L4 whole entry partner, looked up, the tested form may be a part): as the sequence (Q7L9L4 whole entry partner, looked up, the tested form may be a part) above
Sequence of Human LATS2 kinase domain protein (Q9NRM7 553-1088): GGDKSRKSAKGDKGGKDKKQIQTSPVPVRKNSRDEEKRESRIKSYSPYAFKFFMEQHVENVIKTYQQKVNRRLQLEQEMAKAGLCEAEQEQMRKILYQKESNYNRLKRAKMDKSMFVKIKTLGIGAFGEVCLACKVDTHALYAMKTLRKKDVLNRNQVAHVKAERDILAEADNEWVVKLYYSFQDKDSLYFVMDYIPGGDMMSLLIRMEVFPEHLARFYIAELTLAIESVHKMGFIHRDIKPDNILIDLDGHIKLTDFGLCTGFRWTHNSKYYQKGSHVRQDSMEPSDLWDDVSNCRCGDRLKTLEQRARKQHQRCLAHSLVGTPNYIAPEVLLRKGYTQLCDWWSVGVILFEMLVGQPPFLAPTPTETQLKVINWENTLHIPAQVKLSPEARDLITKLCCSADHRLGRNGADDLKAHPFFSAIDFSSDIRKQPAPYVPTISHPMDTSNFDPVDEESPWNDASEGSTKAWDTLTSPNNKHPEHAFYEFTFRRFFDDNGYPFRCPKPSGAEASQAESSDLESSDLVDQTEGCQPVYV
Sequence of Human LATS2 kinase domain protein (Q7L9L4 whole entry partner, the tested form may be a part): as the sequence (Q7L9L4 whole entry partner, looked up, the tested form may be a part) above

In the case of `CC(C)(N)CNc1cc(-c2ccncc2)nc2cnccc12` [Example 295, 2-methyl-N1-(2-(pyridin-4-yl)-1,7-naphthyridin-4-yl)propane-1,2-diamine], the figures for the 50% inhibitory concentration (IC50) in test [1] and in test [2] were 10 nM and above 10000 nM, respectively.

In the case of `Cn1nccc1-c1nc(NC2(C)CCC2)c2ccncc2n1` [Example 186, 2-(1-methyl-1H-pyrazol-5-yl)-N-(1-methylcyclobutyl)pyrido[3,4-d]pyrimidin-4-amine], the values for the concentration for half-maximal inhibition (IC50) (on LATS1; in test [3]) were 9 nM and 50 nM, respectively. The molecule further registered an EC50 in test [4] above 20000 nM.

`CC1(Nc2cc(-c3ccncc3)nc3cnccc23)CC1` [Example 297, N-(1-methylcycloropyl)-2-(pyridin-4-yl)-1,7-naphthyridin-4-amine]: the IC50 in test [1] was 7.5 nM; in test [2] it was above 10000 nM.

Take `CC(C)(CN)CNc1nc(-c2ccncc2)nc2cnccc12` [Example 317, 2,2-dimethyl-N^1-(2-(pyridin-4-yl)pyrido[3,4-d]pyrimidin-4-yl)propane-1,3-diamine]: the IC50 in test [1] was 0.8 nM; in test [2], 3200 nM.

`CC(C)(CN)CNc1cc(-c2ccncc2)nc2cnccc12` [Example 301, 2,2-dimethyl-N1-(2-(pyridin-4-yl)-1,7-naphthyridin-4-yl)propane-1,3-diamine]: the IC50 in test [1] was 5.2 nM; in test [2], above 10000 nM.

Consider `CC(C)(COCCO)Nc1nc(-c2ccncc2)nc2cnccc12` [Example 11, 2-(2-methyl-2-{[2-(pyridin-4-yl)pyrido[3,4-d]pyrimidin-4-yl]amino}propoxy)ethan-1-ol], for which the half-inhibitory concentration (IC50) was 3 nM on LATS1, 12 nM in test [3] and 646 nM in test [5]. Moreover, the midpoint of the response in test [4], the EC50, lay at 1430 nM.

As for `CC1(Nc2cc(-c3ccncn3)nc3cnccc23)CCC1` [Example 307, N-(1-methylcyclobutyl)-2-(pyrimidin-4-yl)-1,7-naphthyridin-4-amine], the IC50 in test [1] turned out to be 1.9 nM; in test [2] it was 1300 nM.

For the molecule `FC(F)(F)[C@H]1CN(c2nc(-c3ccncc3)nc3cnccc23)CCN1` [Example 319, (R)-2-(pyridin-4-yl)-4-(3-(trifluoromethyl)piperazin-1-yl)pyrido[3,4-d]pyrimidine], the half-inhibitory concentration (IC50) in test [1] was 58.1 nM; in test [2], above 10000 nM.

For `CC(C)(CC(N)=O)Nc1nc(-c2ccncc2)nc2cnccc12` [Example 318, 3-methyl-3-((2-(pyridin-4-yl)pyrido[3,4-d]pyrimidin-4-yl)amino)butanamide], the half-inhibitory concentration (IC50) in test [1] was found to be 1.8 nM; in test [2], 3100 nM.

On to `CN(C)CCC(C)(C)Nc1nc(-c2ccncn2)nc2cnccc12` [Example 308, N^1,N^1,3-trimethyl-N^3-(2-(pyrimidin-4-yl)pyrido[3,4-d]pyrimidin-4-yl)butane-1,3-diamine], for which the IC50 in test [1] was 68.7 nM; in test [2], above 10000 nM.

As to `Cc1n[nH]cc1-c1nc(NC(C)(C)CCN(C)C)c2ccncc2n1` [Example 309, N^1,N^1,3-trimethyl-N^3-(2-(3-methyl-1H-pyrazol-4-yl)pyrido[3,4-d]pyrimidin-4-yl)butane-1,3-diamine], the IC50 in test [1] amounted to 0.8 nM; in test [2], 2000 nM.

For the molecule `CN(CCC(C)(C)N)c1nc(-c2ccncc2)nc2cnccc12` [Example 315, N^1,3-dimethyl-N^1-(2-(pyridin-4-yl)pyrido[3,4-d]pyrimidin-4-yl)butane-1,3-diamine], the IC50 in test [1] is 5 nM; in test [2], 5700 nM.

In the case of `CC(Nc1nc(-c2ccncc2)nc2cnccc12)C(F)(F)F` (stereo not shown) [Example 4, 2-(pyridin-4-yl)-N-(1,1,1-trifluoropropan-2-yl)pyrido[3,4-d]pyrimidin-4-amine], the 50% inhibitory concentration (IC50) at LATS1 was 1 nM; in test [3] it was 1 nM; in test [5], 1150 nM; in test [2], above 10000 nM. The molecule also registered an EC50 in test [4] of 2530 nM.

Regarding `CN(c1cc(-c2ccncc2)nc2cnccc12)C(C)(C)C` [Example 306, N-(tert-butyl)-N-methyl-2-(pyridin-4-yl)-1,7-naphthyridin-4-amine], the IC50 was found to be 1.2 nM in test [1] and 1000 nM in test [2].

Take `CC(C)(N)CNc1nc(-c2ccncc2)nc2cnccc12` [Example 312, 2-methyl-N^1-(2-(pyridin-4-yl)pyrido[3,4-d]pyrimidin-4-yl)propane-1,2-diamine]: the IC50 in test [1] came to 2.4 nM; in test [2] it was 7700 nM.

Take `NCCNc1nc(-c2ccncc2)nc2cnccc12` [Example 313, N-(2-(pyridin-4-yl)pyrido[3,4-d]pyrimidin-4-yl)ethane-1,2-diamine]: the figures for the IC50 in test [1] and in test [2] were 3.8 nM and 7800 nM, respectively.

For the molecule `OCC1(Nc2nc(-c3ccncc3)nc3cnccc23)CCC1` [Example 101, (1-{[2-(pyridin-4-yl)pyrido[3,4-d]pyrimidin-4-yl]amino}cyclobutyl)methanol], the 50% inhibitory concentration (IC50) against LATS1 amounted to 5 nM; in test [3], 30 nM; in test [5], 5400 nM; in test [2] it was 3300 nM. In test [4], this molecule displayed an EC50 above 20000 nM.

In the case of `CC(CN)CNc1cc(-c2ccncc2)nc2cnccc12` (stereo not shown) [Example 304, 2-methyl-N^1-(2-(pyridin-4-yl)-1,7-naphthyridin-4-yl)propane-1,3-diamine], the IC50 in test [1] was 9.6 nM; in test [2] it was above 10000 nM.

As to `CC(C)(C)Nc1nc(-c2ccncc2)nc2cnccc12` [Example 59, N-tert-butyl-2-(pyridin-4-yl)pyrido[3,4-d]pyrimidin-4-amine], the half-maximal inhibitory concentration (IC50) at LATS1 is 1 nM; in test [3] it was 4 nM; in test [5], 19 nM; in test [2] it was 1100 nM. In test [4], this molecule came in with an EC50 of 341 nM.

As to `FC(F)(F)C1(Nc2cc(-c3ccncc3)nc3cnccc23)CCC1` [Example 294, 2-(pyridin-4-yl)-N-(1-(trifluoromethyl)cyclobutyl)-1,7-naphthyridin-4-amine], the IC50 in test [1] turned out to be 4.5 nM; in test [2] it was 1100 nM.

With `CC1(Nc2cc(-c3ccncc3)nc3cnccc23)CCC1` [Example 300, N-(1-methylcyclobutyl)-2-(pyridin-4-yl)-1,7-naphthyridin-4-amine], the half-maximal inhibitory concentration (IC50) in test [1] came out at 1.2 nM; in test [2] it was 900 nM.

As for `CN(C)C(=O)C(C)(C)Nc1nc(-c2ccncc2)nc2cnccc12` [Example 314, N,N,2-trimethyl-2-((2-(pyridin-4-yl)pyrido[3,4-d]pyrimidin-4-yl)amino)propanamide], half-maximal inhibition in test [1] (IC50) required 467 nM.

For `CC(C)(N)C(C)(C)Nc1nc(-c2ccncc2)nc2cnccc12` [Example 320, 2,3-dimethyl-N^2-(2-(pyridin-4-yl)pyrido[3,4-d]pyrimidin-4-yl)butane-2,3-diamine], the half-maximal inhibitory concentration (IC50) in test [1] was determined as 0.7 nM; in test [2], 1000 nM.

Molecule `CCOC(=O)C(C)(C)Nc1nc(-c2ccncc2)nc2cnccc12` [Example 322, ethyl 2-methyl-2-((2-(pyridin-4-yl)pyrido[3,4-d]pyrimidin-4-yl)amino)propanoate] registered a half-maximal inhibitory concentration (IC50) in test [1] of 29.2 nM.
